EC50 data for 34 compounds are collected here from US8802663B2, “Pyrazole oxadiazole derivatives as S1P1 agonists” (Merck Serono SA, priority 2009, dated 2014).

Each structure is given as a SMILES string.

The target of this experiment is S1P1 (Homo sapiens (Human), UniProt P21453). Put plainly: 35S-GTPγS binding, membranes from CHO cells expressing S1P1. It counts as biochemical. Conditions: CHO cell membranes. The procedure: Cells were suspended in 50 mM TRIS, pH 7.4, 2 mM EDTA, 250 mM Sucrose (buffer A) and 1× Complete protease inhibitor cocktail (Roche), and disrupted at 4° C. by N2 decompression using a cell disruption bomb (Parr Instrument). Following centrifugation at 1000 RPM for 10 min at 4° C., the supernatant was suspended in buffer A and centrifuged again at 19000 RPM for 60 min at 4° C. The pellet was then suspended in 10 mM HEPES, pH 7.4, 1 mM EDTA, 250 mM Sucrose (Buffer B), and 1× Complete EDTA-free protease inhibitor cocktail and homogenized using a potter. Membranes were flash frozen in liquid N2 and stored at −80° C. [33P]sphingosine 1-phosphate (3000 Ci/mmol; American Radiolabeled Chemicals, Inc.) was added to test compounds in DMSO. […] Specific binding was calculated by subtracting remaining radioactivity in the presence of 1000-fold excess of unlabeled SIP. Binding data were analyzed using the GraphPad Prism program.
Sequence of S1P1 (P21453 whole entry, species assumed): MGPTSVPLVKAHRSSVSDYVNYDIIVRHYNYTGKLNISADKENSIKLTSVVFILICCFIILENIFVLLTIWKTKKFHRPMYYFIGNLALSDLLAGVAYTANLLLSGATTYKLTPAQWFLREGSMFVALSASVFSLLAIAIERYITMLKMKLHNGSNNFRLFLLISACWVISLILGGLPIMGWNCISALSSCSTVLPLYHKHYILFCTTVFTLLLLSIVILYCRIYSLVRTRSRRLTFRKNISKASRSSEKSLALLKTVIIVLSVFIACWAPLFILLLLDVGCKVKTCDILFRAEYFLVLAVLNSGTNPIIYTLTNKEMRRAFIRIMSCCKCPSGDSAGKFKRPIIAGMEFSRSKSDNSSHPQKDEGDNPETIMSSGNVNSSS
After 60 min incubation at 30° C. on a shaker, plates were centrifuged for 10 min at 2000 RPM. […] Triplicate samples were averaged and expressed as % response relative to S1P activation in absence of compound (n=2).
Background: GTPγS is a poorly hydrolysed GTP analogue; its binding reports G protein activation.
Take `OC1CN(Cc2ccc(-c3noc(-c4cnn(C5CCCCC5)c4-c4ccncc4)n3)cc2)C1` [Example 62, 1-{4-[5-(1-cyclohexyl-5-pyridin-4-yl-1H-pyrazol-4-yl)-1,2,4-oxadiazol-3-yl]benzyl}azetidin-3-ol]: the midpoint of the response, the EC50, lay at 3 nM.
Regarding `COCc1c(-c2nc(-c3ccc(CN4CCC(C(=O)O)CC4)cc3)no2)cnn1C1CCCCC1` [Example 64, 1-(4-{5-[1-cyclohexyl-5-(methoxymethyl)-1H-pyrazol-4-yl]-1,2,4-oxadiazol-3-yl}benzyl)piperidine-4-carboxylic acid], the concentration giving a half-maximal response (EC50) was 99 nM.
To `CN(CC(=O)O)Cc1ccc(-c2noc(-c3cnn(C4CCCCC4)c3-c3ccncc3)n2)cc1` [Example 61, N-{4-[5-(1-cyclohexyl-5-pyridin-4-yl-1H-pyrazol-4-yl)-1,2,4-oxadiazol-3-yl]benzyl}-N-methylglycine] belongs 22 nM.
To `Fc1ccc(F)c(-c2noc(-c3cnn(C4CCOCC4)c3-c3ccccc3)n2)c1` [Example 33, 3-(2,5-difluorophenyl)-5-[5-phenyl-1-(tetrahydro-2H-pyran-4-yl)-1H-pyrazol-4-yl]-1,2,4-oxadiazole] belongs 216 nM; to `COCc1c(-c2nc(-c3ccc(CNC(C)C)cc3)no2)cnn1C1CCCCC1` [Example 121, N-(4-(5-(1-cyclohexyl-5-(methoxymethyl)-1H-pyrazol-4-yl)-1,2,4-oxadiazol-3-yl)benzyl)propan-2-amine], 40 nM.
Turning to `CC(C)Cn1ncc(-c2nc(-c3ccc4c(c3)CNCC4)no2)c1-c1ccncc1` [Example 36, 7-[5-(1-isobutyl-5-pyridin-4-yl-1H-pyrazol-4-yl)-1,2,4-oxadiazol-3-yl]-1,2,3,4-tetrahydroisoquinoline], the EC50 stood at 114 nM.
For `Brc1ccc(-c2noc(-c3cnn(C4CCCCC4)c3-c3ccncc3)n2)cc1` [Example 92, 3-(4-bromophenyl)-5-(1-cyclohexyl-5-(pyridin-4-yl)-1H-pyrazol-4-yl)-1,2,4-oxadiazole] the value was 158 nM; for `COCc1c(-c2nc(-c3ccc(CNCC(O)CO)cc3)no2)cnn1C1CCCCC1` (stereo not shown) [Example 122, 3-(4-(5-(1-cyclohexyl-5-(methoxymethyl)-1H-pyrazol-4-yl)-1,2,4-oxadiazol-3-yl)benzylamino)propane-1,2-diol], 157 nM.
For `COCc1c(-c2nc(-c3ccc(CN4CC(O)C4)cc3)no2)cnn1C1CCCCC1` [Example 73, 1-(4-{5-[1-cyclohexyl-5-(methoxymethyl)-1H-pyrazol-4-yl]-1,2,4-oxadiazol-3-yl}benzyl)azetidin-3-ol] the value was 30 nM.
To `COCc1c(-c2nc(-c3cc(F)ccc3F)no2)cnn1C1CCCCC1` [Example 27, 5-[1-cyclohexyl-5-(methoxymethyl)-1H-pyrazol-4-yl]-3-(2,5-difluorophenyl)-1,2,4-oxadiazole] belongs 27 nM.
As for `CCOc1c(-c2nc(-c3cc(F)ccc3F)no2)cnn1-c1ccccc1C` [Example 112, 3-(2,5-difluorophenyl)-5-(5-ethoxy-1-o-tolyl-1H-pyrazol-4-yl)-1,2,4-oxadiazole], the EC50 worked out at 94 nM.
For `COCc1c(-c2nc(-c3ccc(CN(C)C)cc3)no2)cnn1C1CCCCC1` [Example 75, 1-(4-{5-[1-cyclohexyl-5-(methoxymethyl)-1H-pyrazol-4-yl]-1,2,4-oxadiazol-3-yl}phenyl)-N,N-dimethylmethanamine] the value was 63 nM; for `OCCNCc1ccc(-c2noc(-c3cnn(C4CCCCC4)c3-c3ccncc3)n2)cc1` [Example 56, 2-({4-[5-(1-cyclohexyl-5-pyridin-4-yl-1H-pyrazol-4-yl)-1,2,4-oxadiazol-3-yl]benzyl}amino)ethanol], 11 nM; for `CCCn1ncc(-c2nc(-c3cc(F)ccc3F)no2)c1-c1ccccc1` [Example 14, 3-(2,5-difluorophenyl)-5-(5-phenyl-1-propyl-1H-pyrazol-4-yl)-1,2,4-oxadiazole], 201 nM.
Consider `CC(C)Cn1ncc(-c2nc(-c3cccc(S(C)(=O)=O)c3)no2)c1-c1ccncc1` [Example 43, 4-(1-isobutyl-4-{3-[3-(methylsulfonyl)phenyl]-1,2,4-oxadiazol-5-yl}-1H-pyrazol-5-yl)pyridine], for which the response was half-maximal at 292 nM (EC50).
In turn, `Cc1c(-c2nc(-c3cc(F)ccc3F)no2)cnn1-c1ccccc1F` [Example 60, 3-(2,5-difluorophenyl)-5-[1-(2-fluorophenyl)-5-methyl-1H-pyrazol-4-yl]-1,2,4-oxadiazole] displayed an EC50 of 320 nM.
To `CS(=O)(=O)c1cccc(-c2noc(-c3cnn(C4CCCCC4)c3-c3ccncc3)n2)c1` [Example 26, 4-(1-cyclohexyl-4-{3-[3-(methylsulfonyl)phenyl]-1,2,4-oxadiazol-5-yl}-1H-pyrazol-5-yl)pyridine] belongs 29 nM.
For the compound `CC(C)Cn1ncc(-c2nc(-c3ccc(CO)cc3)no2)c1C1CCOCC1` [Example 63], the 50% effective concentration (EC50) was determined as 428 nM.
With `CNCc1ccc(-c2noc(-c3cnn(C4CCCCC4)c3-c3ccncc3)n2)cc1` [Example 55, 1-{4-[5-(1-cyclohexyl-5-pyridin-4-yl-1H-pyrazol-4-yl)-1,2,4-oxadiazol-3-yl]phenyl}-N-methylmethanamine], the 50% effective concentration (EC50) amounted to 24 nM.
Compound `COCc1c(-c2nc(-c3ccc(N)nc3)no2)cnn1C1CCCCC1` [Example 124, 5-(5-(1-cyclohexyl-5-(methoxymethyl)-1H-pyrazol-4-yl)-1,2,4-oxadiazol-3-yl)pyridin-2-amine] yielded an EC50 of 382 nM.
Consider `COc1ccccc1-n1ncc(-c2nc(-c3cc(F)ccc3F)no2)c1-c1ccccc1` [Example 4, 3-(2,5-difluorophenyl)-5-[1-(2-methoxyphenyl)-5-phenyl-1H-pyrazol-4-yl]-1,2,4-oxadiazole], for which the EC50 is 284 nM.
For `Cc1c(-c2nc(-c3cc(F)ccc3F)no2)cnn1-c1ccccc1` [Example 15, 3-(2,5-difluorophenyl)-5-(5-methyl-1-phenyl-1H-pyrazol-4-yl)-1,2,4-oxadiazole] the value was 192 nM; for `OCc1ccc(-c2noc(-c3cnn(C4CCCCC4)c3-c3ccncc3)n2)cc1` [Example 29, {4-[5(1-cyclohexyl-5-pyridin-4-yl-1H-pyrazol-4-yl)-1,2,4-oxadiazol-3-yl]phenyl}methanol], 24 nM; for `COCc1c(-c2nc(-c3ccc4c(c3)CCNC4)no2)cnn1C1CCCCC1` [Example 116, 5-(1-cyclohexyl-5-(methoxymethyl)-1H-pyrazol-4-yl)-3-(1,2,3,4-tetrahydroisoquinolin-6-yl)-1,2,4-oxadiazole], 86 nM.
Turning to `Fc1ccc(F)c(-c2noc(-c3cnn(Cc4ccccc4)c3-c3ccncc3)n2)c1` [Example 25, 4-{1-benzyl-4-[3-(2,5-difluorophenyl)-1,2,4-oxadiazol-5-yl]-1H-pyrazol-5-yl}pyridine], the concentration for a half-maximal effect (EC50) came to 148 nM.
Compound `Fc1ccc(F)c(-c2noc(-c3cnn(C4CCC4)c3-c3ccncc3)n2)c1` [Example 44, 4-{1-cyclobutyl-4-[3-(2,5-difluorophenyl)-1,2,4-oxadiazol-5-yl]-1H-pyrazol-5-yl}pyridine] had an EC50 of 402 nM.
With `COCc1c(-c2nc(-c3ccc(CN4CC(C(=O)O)C4)cc3)no2)cnn1C1CCCCC1` [Example 68, 1-(4-{5-[1-cyclohexyl-5-(methoxymethyl)-1H-pyrazol-4-yl]-1,2,4-oxadiazol-3-yl}benzyl)azetidine-3-carboxylic acid], the half-maximal effective concentration (EC50) worked out at 0.3 nM.
As for `c1ccc(-c2c(-c3noc(-c4cccnc4)n3)cnn2C2CCCCC2)cc1` [Example 53, 3-[3-(1-cyclohexyl-5-phenyl-1H-pyrazol-4-yl)-1,2,4-oxadiazol-5-yl]pyridine], the EC50 stood at 164 nM.
For `c1cc(-c2c(-c3nc(-c4ccc5c(c4)CNCC5)no3)cnn2C2CCCCC2)ccn1` [Example 39, 7-[5-(1-cyclohexyl-5-pyridin-4-yl-1H-pyrazol-4-yl)-1,2,4-oxadiazol-3-yl]-1,2,3,4-tetrahydroisoquinoline], a half-maximal effect (EC50) was put at 16 nM.
In the case of `FC(F)(F)c1cccc(-c2noc(-c3cnn(C4CCCCC4)c3C3CCOCC3)n2)c1` [Example 87, 5-(1-cyclohexyl-5-(tetrahydro-2H-pyran-4-yl)-1H-pyrazol-4-yl)-3-(3-(trifluoromethyl)phenyl)-1,2,4-oxadiazole], the half-maximal effective concentration (EC50) was determined as 361 nM.
To `COCCc1c(-c2nc(-c3ccc(Cn4cncn4)cc3)no2)cnn1C1CCCCC1` [Example 111, 3-(4-((1H-1,2,4-triazol-1-yl)methyl)phenyl)-5-(1-cyclohexyl-5-(2-methoxyethyl)-1H-pyrazol-4-yl)-1,2,4-oxadiazole] belongs 29 nM; to `COCc1c(-c2nc(-c3ccc(OC4CCNC4)cc3)no2)cnn1C1CCCCC1` (stereo not shown) [Example 131, 5-(1-cyclohexyl-5-(methoxymethyl)-1H-pyrazol-4-yl)-3-(4-(pyrrolidin-3-yloxy)phenyl)-1,2,4-oxadiazole], 181 nM.
As for `O=C(O)CCNCc1ccc(-c2noc(-c3cnn(C4CCCCC4)c3-c3ccncc3)n2)cc1` [Example 65, N-{4-[5-(1-cyclohexyl-5-pyridin-4-yl-1H-pyrazol-4-yl)-1,2,4-oxadiazol-3-yl]benzyl}-beta-alanine], the EC50 was 1 nM.
As for `C[C@H]1CCCC[C@@H]1n1ncc(-c2nc(-c3cc(F)ccc3F)no2)c1-c1ccccc1` [Example 46, 3-(2,5-difluorophenyl)-5-{1-[(1S,2S)-2-methylcyclohexyl]-5-phenyl-1H-pyrazol-4-yl}-1,2,4-oxadiazole], the EC50 turned out to be 26 nM.

What is called EC50 is the concentration at which the effect is half-maximal. A higher EC50 goes with a less potent agent.
